Assay results taken from patent US10533010B2, “Substituted indole Mcl-1 inhibitors” (Vanderbilt University, priority 2014, dated 2020).

Biological target: recombinant Mcl-1 (residues 172-327) (Homo sapiens (Human), UniProt Q07820)
Test: Fluorescence polarization anisotropy competition assay (FITC-Bak or FITC-Bim BH3 peptide) with Mcl-1
Type: binding
Conditions: Table 2; Ki bins given in nM; FITC-Bak or FITC-Bim peptide competition; Ki converted from IC50; read-out: Ki for Inhibition of Mcl-1

recombinant Mcl-1 (residues 172-327), sequence (Q07820 172-327): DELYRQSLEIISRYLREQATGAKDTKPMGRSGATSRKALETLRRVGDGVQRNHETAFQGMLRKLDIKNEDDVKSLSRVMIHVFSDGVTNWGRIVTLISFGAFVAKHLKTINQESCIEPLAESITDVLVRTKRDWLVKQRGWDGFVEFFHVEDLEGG

Row | Structure (SMILES) | Ki [nM]
1 | Cc1cc(OCCCc2c(C(=O)NCCC(=O)NS(=O)(=O)c3cccc(C#N)c3)[nH]c3ccccc23)cc(C)c1Cl [I-19, 3-(3-(4-chloro-3,5-dimethylphenoxy)propyl)-N-(3-((3-cyanophenyl)sulfonamido)-3-oxopropyl)-1H-indole-2-carboxamide] | 101 to 299
2 | Cc1cc(OCCCc2c(C(=O)NCCC(=O)NS(=O)(=O)c3ccccc3[N+](=O)[O-])[nH]c3ccccc23)cc(C)c1Cl [I-20, 3-(3-(4-chloro-3,5-dimethylphenoxy)propyl)-N-(3-((2-nitrophenyl)sulfonamido)-3-oxopropyl)-1H-indole-2-carboxamide] | 101 to 299
3 | Cc1cc(OCCCc2c3n(c4c(-c5c(C)nn(C)c5C)c(Cl)ccc24)CCCN(c2scnc2C(=O)O)C3=O)cc(C)c1Cl [I-350, 5-(8-chloro-11-(3-(4-chloro-3,5-dimethylphenoxy)propyl)-1-oxo-7-(1,3,5-trimethyl-1H-pyrazol-4-yl)-4,5-dihydro-1H-[1,4]diazepino[1,2-a]indol-2(3H)-yl)thiazole-4-carboxylic acid] | < 50
4 | Cc1cc(OCCCc2c(C(=O)Nc3ccc(C(=O)O)c(N4CCN(C)CC4)c3)[nH]c3c(-c4c(C)nn(C)c4C)c(Cl)ccc23)cc(C)c1Cl [I-90, 4-(6-chloro-3-(3-(4-chloro-3,5-dimethylphenoxy)propyl)-7-(1,3,5-trimethyl-1H-pyrazol-4-yl)-1H-indole-2-carboxamido)-2-(4-methylpiperazin-1-yl)benzoic acid] | < 50
5 | Cc1cc(OCCCc2c3n(c4c(-c5c(C)nn(C)c5C)c(Cl)ccc24)[C@@H](C)CN(Cc2cccc(C(=O)O)c2)C3=O)cc(C)c1Cl [I-151, (S)-3-((7-chloro-10-(3-(4-chloro-3,5-dimethylphenoxy)propyl)-4-methyl-1-oxo-6-(1,3,5-trimethyl-1H-pyrazol-4-yl)-3,4-dihydropyrazino[1,2-a]indol-2(1H)-yl)methyl)benzoic acid] | < 50
6 | Cc1cc(OCCCc2c(C(=O)Nc3ccc(C(=O)O)c(N(C)CCN(C)C)c3)[nH]c3c(-c4c(C)nn(C)c4C)c(Cl)ccc23)cc(C)c1Cl [I-92, 4-(6-chloro-3-(3-(4-chloro-3,5-dimethylphenoxy)propyl)-7-(1,3,5-trimethyl-1H-pyrazol-4-yl)-1H-indole-2-carboxamido)-2-((2-(dimethylamino)ethyl)(methyl)amino)benzoic acid] | < 50

More lines, now with the values ahead:

Row | Ki [nM] | Structure (SMILES)
7 | < 50 | Cc1cc(OCCCc2c(C(=O)N[C@H]3CC[C@@H](C(=O)O)C3)[nH]c3c(-c4c(C)nn(C)c4C)c(Cl)ccc23)cc(C)c1Cl [I-330, (1R,3S)-3-(6-chloro-3-(3-(4-chloro-3,5-dimethylphenoxy)propyl)-7-(1,3,5-trimethyl-1H-pyrazol-4-yl)-1H-indole-2-carboxamido)cyclopentane-1-carboxylic acid]
8 | < 50 | Cc1nn(C)c(C)c1-c1cccc2c(CCCOc3cccc4ccccc34)c(C(=O)N(C)c3cccc(C(=O)O)c3)[nH]c12 [I-195, 3-(N-methyl-3-(3-(naphthalen-1-yloxy)propyl)-7-(1,3,5-trimethyl-1H-pyrazol-4-yl)-1H-indole-2-carboxamido)benzoic acid]
9 | < 50 | Cc1cc(N2CCCn3c(c(CCCOc4cc(C)c(Cl)c(C)c4)c4ccc(Cl)c(-c5c(C)nn(C)c5C)c43)C2=O)ccc1C(=O)O [I-99, 4-(8-chloro-11-(3-(4-chloro-3,5-dimethylphenoxy)propyl)-1-oxo-7-(1,3,5-trimethyl-1H-pyrazol-4-yl)-4,5-dihydro-1H-[1,4]diazepino[1,2-a]indol-2(3H)-yl)-2-methylbenzoic acid]
10 | < 50 | Cc1cc(OCCCc2c(C(=O)N3CCN(c4ccc(C(=O)O)cc4)CC3)n(Cc3ccccn3)c3c(-c4c(C)nn(C)c4C)c(Cl)ccc23)cc(C)c1Cl [I-341, 4-(4-(6-chloro-3-(3-(4-chloro-3,5-dimethylphenoxy)propyl)-1-(pyridin-2-ylmethyl)-7-(1,3,5-trimethyl-1H-pyrazol-4-yl)-1H-indole-2-carbonyl)piperazin-1-yl)benzoic acid]
11 | < 50 | Cc1cc(OCCCc2c(C(=O)Nc3ccc(CC(=O)O)cc3)[nH]c3c(-c4c(C)nn(C)c4C)cccc23)cc(C)c1Cl [I-205, 2-(4-(3-(3-(4-chloro-3,5-dimethylphenoxy)propyl)-7-(1,3,5-trimethyl-1H-pyrazol-4-yl)-1H-indole-2-carboxamido)phenyl)acetic acid]
12 | < 50 | Cc1cc(OCCCc2c3n(c4c(-c5c(C)nn(C)c5C)c(Cl)ccc24)CCC(C)N(Cc2cccc(C(=O)O)c2)C3=O)cc(C)c1Cl (stereo not drawn) [I-125, 3-((8-chloro-11-(3-(4-chloro-3,5-dimethylphenoxy)propyl)-3-methyl-1-oxo-7-(1,3,5-trimethyl-1H-pyrazol-4-yl)-4,5-dihydro-1H-[1,4]diazepino[1,2-a]indol-2(3H)-yl)methyl)benzoic acid]
13 | < 50 | Cc1cc(OCCCc2c3n(c4c(-c5c(C)nn(C)c5C)c(Cl)ccc24)CCCN(c2ccc(C(=O)O)cc2F)C3=O)cc(C)c1Cl [I-95, 4-(8-chloro-11-(3-(4-chloro-3,5-dimethylphenoxy)propyl)-1-oxo-7-(1,3,5-trimethyl-1H-pyrazol-4-yl)-4,5-dihydro-1H-[1,4]diazepino[1,2-a]indol-2(3H)-yl)-3-fluorobenzoic acid]
14 | < 50 | Cc1ccc(C(=O)O)cc1N1CCCn2c(c(CCCOc3cc(C)c(Cl)c(C)c3)c3ccc(Cl)c(-c4c(C)nn(C)c4C)c32)C1=O [I-100, 3-(8-chloro-11-(3-(4-chloro-3,5-dimethylphenoxy)propyl)-1-oxo-7-(1,3,5-trimethyl-1H-pyrazol-4-yl)-4,5-dihydro-1H-[1,4]diazepino[1,2-a]indol-2(3H)-yl)-4-methylbenzoic acid]
15 | < 50 | Cc1cc(OCCCc2c3n(c4c(-c5c(C)nn(C)c5C)c(Cl)ccc24)[C@@H](C)CN(c2ccc(C(=O)O)c4ncccc24)C3=O)cc(C)c1Cl [I-168, (S)-5-(7-chloro-10-(3-(4-chloro-3,5-dimethylphenoxy)propyl)-4-methyl-1-oxo-6-(1,3,5-trimethyl-1H-pyrazol-4-yl)-3,4-dihydropyrazino[1,2-a]indol-2(1H)-yl)quinoline-8-carboxylic acid]
16 | < 50 | Cc1cc(OCCCc2c3n(c4c(-c5c(C)nn(C)c5C)c(Cl)ccc24)CCCN(c2cc(C(=O)O)cc4[nH]ccc24)C3=O)cc(C)c1Cl [I-252, 4-(8-chloro-11-(3-(4-chloro-3,5-dimethylphenoxy)propyl)-1-oxo-7-(1,3,5-trimethyl-1H-pyrazol-4-yl)-4,5-dihydro-1H-[1,4]diazepino[1,2-a]indol-2(3H)-yl)-1H-indole-6-carboxylic acid]

Same assay, conditions: Table 2; Ki bins given in μM; FITC-Bak or FITC-Bim peptide competition; Ki converted from IC50; read-out: Ki for Inhibition of Mcl-1

Row | Structure (SMILES) | Ki [nM]
17 | COC(=O)[C@H](Cc1ccccc1)NC(=O)CNC(=O)c1[nH]c2c(-c3c(C)nn(C)c3C)cccc2c1CCCOc1cc(C)c(Cl)c(C)c1 [I-288, methyl (3-(3-(4-chloro-3,5-dimethylphenoxy)propyl)-7-(1,3,5-trimethyl-1H-pyrazol-4-yl)-1H-indole-2-carbonyl)glycyl-L-phenylalaninate] | 1000 to 9990
18 | CCOC(=O)c1ccc(CNC(=O)c2[nH]c3c(-c4c(C)nn(C)c4C)cccc3c2CCCOc2cc(C)c(Cl)c(C)c2)o1 [I-266, ethyl 5-((3-(3-(4-chloro-3,5-dimethylphenoxy)propyl)-7-(1,3,5-trimethyl-1H-pyrazol-4-yl)-1H-indole-2-carboxamido)methyl)furan-2-carboxylate] | 10000 to 50000
